# Test results: PMC8041284, “Tunable Methacrylamides for Covalent Ligand Directed Release Chemistry” (Journal of the American Chemical Society, 2021)
# Read-outs that look alike come from different tables or passages of the source.
# Biological target: BTK (Homo sapiens, UniProt Q06187)
# Experiment: biochemical
# [1] = read-out: BTK inhibition (%), 0.75 uM BTK, […] probe 3l, 15 min preincubation
# Chain of BTK (Q06187 402-655 limits assumed): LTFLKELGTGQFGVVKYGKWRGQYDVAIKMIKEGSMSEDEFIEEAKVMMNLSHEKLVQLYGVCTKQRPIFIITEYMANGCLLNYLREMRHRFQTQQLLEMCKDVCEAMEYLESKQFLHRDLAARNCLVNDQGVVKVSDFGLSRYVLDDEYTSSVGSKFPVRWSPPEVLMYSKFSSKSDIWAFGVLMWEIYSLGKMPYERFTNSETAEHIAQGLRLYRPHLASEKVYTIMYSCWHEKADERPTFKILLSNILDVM
SMILES,inhibition at 10 µM [1],inhibition at 10 µM (read-out: BTK inhibition (%))
CC(C)=CCC[C@](C)(O[C@@H]1O[C@H](CO)[C@@H](O)[C@H](O)[C@H]1O)[C@H]1CC[C@]2(C)[C@@H]1[C@H](O)C[C@@H]1[C@@]3(C)CC[C@H](O)C(C)(C)[C@@H]3CC[C@]12C [PCM-0216397],11.6%,
CCCC(=O)Nc1ccc(OCC(O)CNC(C)C)c(C(C)=O)c1 (centres unmarked) [PCM-0085895],-12.5%,
O=CN1CC/C(=C\c2ccc3c(c2)OCO3)C1=O [PCM-0215470],10.8%,
COc1cc(O)c(CC=C(C)C)c2c1C(=O)CC(c1ccc(O)cc1)O2 (centres unmarked) [PCM-0216367],8.5%,
Cn1cc(-c2cnn3c(N)c(Br)c([C@@H]4CCCNC4)nc23)cn1 [PCM-0095786],-6.8%,
Cn1nnc2c(C(N)=O)ncn2c1=O [PCM-0086047],-4.1%,
Cc1oc2nc3c(c(NC(=O)CN4CCCC4=O)c2c1C)CCCC3 [PCM-0216053],12.4%,
COc1cc(C)[nH]c(=O)c1CNC(=O)c1c(C)n([C@H](C)C2CCN(CC(F)(F)F)CC2)c2ccccc12 [PCM-0214592],21.6%,
COc1ccnc(C[S+]([O-])c2nc3ccc(-n4cccc4)cc3[nH]2)c1C (centres unmarked) [PCM-0214937],25.7%,
CN(CCNCc1cn(Cc2ccc(Cl)cc2)nn1)CCNc1ccnc2cc(Cl)ccc12 [PCM-0215895],-10.8%,
Cn1c(N2CCCCS2(=O)=O)nc(C(=O)NCc2ccc(F)cc2)c(O)c1=O [PCM-0094999],-20.2%,
C[C@]12CC[C@H]3[C@@H](CC[C@@]45O[C@@H]4C(O)=C(C#N)C[C@]35C)[C@@H]1CC[C@@H]2O [PCM-0214622],13.2%,
O=C1NC(=O)/C(=C/c2ccc(-c3ccc(F)cc3O)o2)S1 [PCM-0064686],82.8%,
CCCCCCC(=O)O[C@H]1CC[C@H]2[C@@H]3CCC4=CC(=O)CC[C@]4(C)[C@H]3CC[C@]12C [PCM-0214913],,6.2%
O=S(=O)(Cl)c1ccc(-c2ccccc2)cc1 [PCM-0216165],-8.5%,
O=Cc1ccc(O)c(O)c1 [PCM-0215162],5.4%,
C[C@@H]1O[C@@H](O[C@H]2[C@H](O[C@H]3CC[C@@]4(C)[C@@H](CC[C@]5(C)[C@@H]4CC=C4[C@@H]6CC(C)(C)CC[C@]6(C(=O)O[C@@H]6O[C@H](CO[C@@H]7O[C@H](CO)[C@@H](O[C@@H]8O[C@@H](C)[C@H](O)[C@@H](O)[C@H]8O)[C@H](O)[C@H]7O)[C@@H](O)[C@H](O)[C@H]6O)CC[C@]45C)[C@]3(C)CO)OC[C@H](O)[C@@H]2O)[C@H](O)[C@H](O)[C@H]1O [PCM-0215008],-10.1%,
CCN(CC)c1ccc2c(-c3ccccc3C(=O)O)c3ccc(=[N+](CC)CC)cc-3oc2c1 [PCM-0216592],85.7%,
O=C(O)CCCc1ccccc1 [PCM-0095550],-12.4%,
COc1ccc(O)cc1 [PCM-0090031],12.5%,
Cc1ccc(NC(=O)c2ccc(CN3CCN(C)CC3)cc2)cc1Nc1nc(-c2cccnc2)cs1 [PCM-0094992],-47.6%,
CCCCCCCCCCCC(=O)O [PCM-0214847],-69.3%,
Cc1cc(Nc2cc(Cl)nc(Oc3ccc([N+](=O)[O-])cc3)n2)n[nH]1 [PCM-0215861],12.4%,
C[C@@H]1CN(CC(=O)Nc2ccc3c(c2)Cc2cccc(-c4cc(=O)cc(N5CCOCC5)o4)c2S3)C[C@H](C)O1 [PCM-0095132],26.2%,
O=c1[nH]ccc2c(S(=O)(=O)N3CCCNCC3)cccc12 [PCM-0215797],-2.8%,

SMILES,inhibition at 10 µM [1],inhibition at 10 µM (read-out: BTK inhibition (%))
OC1CC2CCC(C1)N2 (centres unmarked) [PCM-0215141],-1.6%,
CNS(=O)(=O)Nc1nccc(Cc2c(C)c3ccc(Oc4ncccn4)cc3oc2=O)c1F [PCM-0215552],17.9%,
CC(C)(O)CNc1ncc(-c2ccnc(Nc3ccncc3)n2)c(CC2CC2)n1 [PCM-0215768],9.7%,
CC(C)N(CCNC(=O)CN1CCCC1=O)C(C)C [PCM-0095202],1.6%,
CCOC(=O)COc1ccc(/C=C2\SC(=S)NC2=O)cc1OC [PCM-0215662],84.2%,
Cc1nc2c(O)cccc2c(=O)[nH]1 [PCM-0215466],-10.8%,
CC1(C)CC(=O)c2c(C(F)(F)F)nn(-c3ccc(C(N)=O)c(NC4CCC(OC(=O)CN)CC4)c3)c2C1 (centres unmarked) [PCM-0214703],1.6%,
Cn1cc(/C=C2\C(=O)Nc3cccnc32)c2ccccc21 [PCM-0095342],22.8%,
CCNc1nc(Nc2cc(F)c(C(=O)N3CCOCC3)cc2OC)ncc1C(F)(F)F [PCM-0215337],-9%,
CC1(C)O[C@@H]2C[C@H]3[C@@H]4C[C@H](F)C5=CC(=O)C=C[C@]5(C)[C@@]4(F)[C@@H](O)C[C@]3(C)[C@]2(C(=O)CO)O1 [PCM-0086270],-17.1%,
CC(C)OC(=O)CCC/C=C\C[C@@H]1[C@@H](CC[C@@H](O)CCc2ccccc2)[C@H](O)C[C@@H]1O [PCM-0215712],-13.1%,
COCCOc1cnc2ccn([C@H](C)c3nnc4c(F)cc(-c5cnn(C)c5)cn34)c(=O)c2c1 [PCM-0215653],15.9%,
CC(=O)N=c1sc(S(N)(=O)=O)nn1C [PCM-0095591],-7.8%,
COC(=O)c1c2c(c3ccccc3c1O)OC(C)(C)C=C2 [PCM-0216437],-27%,
CCOC(=O)/C=C/c1ccc(OC)cc1 [PCM-0216286],-3.1%,
CN(C)CC/C=C1/c2ccccc2Sc2ccc(Cl)cc21 [PCM-0095101],10.9%,
C[C@@H]1CN(c2c(F)c(N)c3c(=O)c(C(=O)O)cn(C4CC4)c3c2F)C[C@H](C)N1 [PCM-0086271],2.3%,
CNC1CCCN(c2c(F)cc3c(=O)c(C(=O)O)cn(C4CC4)c3c2OC)C1 (centres unmarked) [PCM-0095230],-5.4%,
CC(C)(C)[C@]1(O)C[C@@H]2OC(=O)C[C@@]23C(=O)O[C@@H]2OC(=O)[C@H](O)[C@]213 [PCM-0094827],,-6.2%
COC(=O)Nc1nc2ccc(C(=O)c3cccs3)cc2[nH]1 [PCM-0065378],-6.2%,
CS(=O)(=O)c1cccc(CNc2nc(Nc3ccc4c(c3)CCC(=O)N4)ncc2C(F)(F)F)c1 [PCM-0064954],55.2%,
CC(CCc1ccccc1)NCC(=O)c1ccc(O)c(C(N)=O)c1 (centres unmarked) [PCM-0216052],-18.5%,
O=c1cc(N2CCOCC2)oc2c(-c3ccc4c(c3)OCCO4)csc12 [PCM-0215845],23.4%,
C[C@@H](CC[C@@]1(O)O[C@H]2C[C@H]3[C@@H]4CC[C@@H]5C[C@@H](O[C@@H]6O[C@H](CO)[C@H](O)[C@H](O)[C@H]6O[C@@H]6O[C@H](CO)[C@@H](O)[C@H](O)[C@H]6O)CC[C@]5(C)[C@H]4CC[C@]3(C)[C@H]2[C@@H]1C)CO[C@@H]1O[C@H](CO)[C@@H](O)[C@H](O)[C@H]1O [PCM-0216516],-3.9%,
CO/N=C1\C[C@]2(C[C@@H]3C[C@@H](C/C=C(\C)C[C@@H](C)/C=C/C=C4\CO[C@@H]5[C@H](O)C(C)=C[C@@H](C(=O)O3)[C@]45O)O2)O[C@H](/C(C)=C/C(C)C)[C@H]1C [PCM-0214892],16.3%,

SMILES,inhibition at 10 µM [1],inhibition at 10 µM (read-out: BTK inhibition (%))
CN1CC(O)c2cc(N=NC(N)=O)c(O)cc21 (centres unmarked) [PCM-0216016],28.3%,
Nc1ncc(-c2ccnc(Nc3ccncc3)n2)c(CC2CC2)n1 [PCM-0215628],8.3%,
N#Cc1ccc([C@H]2CCc3cncn32)c(F)c1 [PCM-0215764],6.2%,
CC(C)c1nc(CN(C)C(=O)N[C@H](C(=O)N[C@@H](Cc2ccccc2)C[C@H](O)[C@H](Cc2ccccc2)NC(=O)OCc2cncs2)C(C)C)cs1 [PCM-0214603],-19.5%,
COC(=O)[C@H](O)[C@@H](NC(=O)c1ccccc1)c1ccccc1 [PCM-0216282],-5.4%,
CC(=O)O[C@H]1CC(=O)OC(C)(C)[C@@H]2CC(=O)[C@]3(C)[C@H](CC[C@@]4(C)[C@H](c5ccoc5)OC(=O)[C@H]5O[C@]543)[C@@]12C [PCM-0216014],13.9%,
O=C(O)CCCCC1CCSS1 (centres unmarked) [PCM-0090722],-16.3%,
C=CC(=O)Nc1cccc(Nc2nc(Nc3ccc(NC4CN(CCF)C4)cc3OC)ncc2C(F)(F)F)c1 [PCM-0215208],91%,
C#C[C@]1(O)CC[C@H]2[C@@H]3CCc4cc(OC5CCCC5)ccc4[C@H]3CC[C@@]21C [PCM-0214893],-8.6%,
CC(=O)N1CCN(c2ccc(NC(=O)Cc3cnc(-c4ccnc(F)c4)c(C)c3)nc2)CC1 [PCM-0215890],-10.8%,
CC(=O)O/N=C1/C(c2c(O)[nH]c3cc(Br)ccc23)=Nc2ccccc21 [PCM-0215536],60.7%,
COc1ccc(-n2c(C)c([N+](=O)[O-])c3ccc(O)cc32)cc1 [PCM-0215272],23.4%,
O=C(N[C@H](CO)[C@H](O)c1ccc([N+](=O)[O-])cc1)C(Cl)Cl [PCM-0214645],-8.6%,
NC(=O)c1cccnc1 [PCM-0085961],12.5%,
O=C1NC(=O)/C(=C/c2ccc3nccc(-c4ccncc4)c3c2)S1 [PCM-0094973],14.5%,
C[C@@H](N)c1ccc(C(=O)Nc2ccnc3[nH]ccc23)cc1 [PCM-0215750],-30.3%,
C=CC/C(=N\OS(=O)(=O)O)S[C@@H]1O[C@H](CO)[C@@H](O)[C@H](O)[C@H]1O [PCM-0216356],3.9%,
CC1(C)S[C@@H]2[C@H](NC(=O)Cc3ccccc3)C(=O)N2[C@H]1C(=O)O [PCM-0214771],-10.1%,
N#C/C(=C\c1ccc(-c2cc(Cl)ccc2Cl)o1)C(=O)Nc1cccc2ncccc12 [PCM-0215369],22.4%,
S=C(NCc1ccc2c(c1)OCO2)N1CCN(c2ncnc3c2oc2ccccc23)CC1 [PCM-0094997],28.3%,
O=C(O)CCn1c2c(c3ccccc31)C[C@H](NS(=O)(=O)c1ccc(F)cc1)CC2 [PCM-0101878],-15.4%,
CC(=O)OCC1=C(C(=O)O)N2C(=O)[C@@H](NC(=O)CSC(=NC(C)C)NC(C)C)[C@H]2SC1 [PCM-0216063],4.7%,
CN(C)[C@@H]1C(=O)C(C(N)=O)=C(O)[C@@]2(O)C(=O)C3=C(O)c4c(O)cccc4[C@@](C)(O)[C@H]3C[C@@H]12 [PCM-0085873],6.2%,
C=C1CC[C@H](O)C/C1=C/C=C1\CCC[C@]2(C)[C@@H]([C@H](C)/C=C/[C@H](C)C(C)C)CC[C@@H]12 [PCM-0214746],-23.3%,
